Experimental findings from patent US8486968B2, “Compounds” (Boehringer Ingelheim International GmbH, priority 2010, dated 2013) are described below.

Broadly, the IC50 is the concentration at which inhibition is half-maximal.

The target in experiment [1] is T1, mPGES-1 (Homo sapiens, UniProt O14684).
T1 sequence (O14684 1-152): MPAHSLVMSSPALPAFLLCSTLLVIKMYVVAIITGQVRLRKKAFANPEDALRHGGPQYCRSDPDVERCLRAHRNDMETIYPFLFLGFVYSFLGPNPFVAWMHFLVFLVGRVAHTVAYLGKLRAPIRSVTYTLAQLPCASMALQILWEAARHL
The experiment is described as follows: A549 cell-based assay (PGE2 formation, IL-1β stimulated, 50% human serum). Also noted: host or cells: A549 cells. Conditions: A549 cells, IL-1β 5 ng/ml, 20-24 h, Table B, read-out: mPGES-1 inhibitory effect, IC50, cell assay. The method, then:
Although the enzymatic assay is a high throughput assay the disadvantage is that it uses a recombinant protein which is not in its natural environment. Accordingly a cellular assay was established in which a cell line of human origin (A549) expressing the mPGES-1 protein was used. In addition in order to mimic the situation in humans in which compounds can be bound to plasma proteins 50% human serum is added in the assay. By having the combination of testing mPGES-1 in a cellular environment and the presence of 50% human serum this assay has a higher relevance to judge the therapeutic potential of a mPGES-inhibitor than the pure enzyme assay.
A549 cells (ATCC: CCL-185) are grown to about 90% confluence in F-12K Nutrient Mixture (Kaighn's Mod. Gibco) containing 10% FBS in a humified incubator at 37° C. and 5% CO2. Cells were detached using Trypsin-EDTA. A549 cells were seeded in a 384-well collagene plate at a density of 7000 cells/well (50 μl) in F-12 medium containing 1% Penicillin-Streptomycin and 50% human serum. The cells were allowed to attach for 3-4 h. After that the cells were incubated for 20-24 h in F-12k medium supplemented with 50% human serum, 1% Penicillin-Streptomycin and containing IL-1β at a final concentration of 5 ng/ml as well as 10 nM arachidonic acid in the presence of a vehicle or a test compound. The total volume is 100 μl.
Concentrations of PGE2 in the cell free medium (10 μl) were measured using a commercially available HTRF kit from Cisbio (as described above). The PGE2 formation in the absence of test compound was taken as 100%.
IC50 values were derived from at 6-8 point titrations using conventional software.

The target in experiment [2] is T1, mPGES-1. Nature of the experiment: mPGES-1 enzyme assay (HTRF detection of PGE2). The note with it: recombinant human mPGES-1 microsomes, PGH2 2 μM, Table A; read-out: mPGES-1 inhibitory effect, IC50, enzyme assay. Type of experiment: biochemical. Further details: made in house; host or cells: Rosetta E. coli (membrane/microsome fraction). As for the experimental part: Microsomes from Rosetta E. coli bacteria expressing recombinant human mPGES-1 can be derived as described below:
Inoculate 5 ml LB with Ampicilin (50 μg/ml) and Chloramphenicol (34 μg/ml) with bacteria from freeze culture. Incubate 8 h at 37° C. with 200 rpm. Thereafter, inoculate 500-1000 ml LB containing Amp and Chloro with the 5 ml on culture and grow to OD640 of 0.8-1.0. Chill the culture to +4° C. before induction. Induce the culture with IPTG at a final concentration of 400 μM. Express the protein at room temp 18-23° C. with 200 rpm shaking over night.
The following steps can be performed on the following day: • 1. Spin down the cells in 250 ml centrifuge flasks for 15 min at 7000 rpm (Beckmann Coulte Avanti J-E centrifuge) • 2. Dissolve the pellet from 250 ml culture in 12.5 ml homogenization buffer • 3. (15 mM Tris-HCL pH8, 1 mM EDTA pH8, […], 2.5 mM GSH, 1 Tablet Protease inhibitor per 50 ml buffer) • 4. Disintegrate the cells by sonication, 5×10 seconds at 48% amplitude of a 750 W sonifier • 5. Add 2.5 ml MgCl2 (100 mM) and DNase 12.5 μl (0.8 mg/ml) and incubate on ice for 30 min • 6. Spin down the bacteria debris and save the supernatant, 7000 rpm for 15 min • 7. Isolate the protein containing membranes in the supernatant by ultracentrifugation 120000×g for 2 hour at 4° C. (Sorvall T880 rotor). • 8. Discard the supernatant and dissolve the pellet in 20 mM Potassium phosphate buffer pH 7.4 (KH2PO4 and K2HPO4) buffer by sonication (5×10 s, 30% of a 50 W sonifier) and aliquot the enzyme and store aliquots at −80° C.
Before each experiment is performed an aliquot of the enzyme is thawed and it can then be dissolved in 0.1 M Potassium phosphate buffer pH7.4 (KH2PO4 and K2HPO4) buffer containing 2.5 mM GSH.
The aim of this assay is the determine the affinity of a test compound for the mPGES-1 enzyme.
47 μl of recombinant human mPGES-1 (˜0.5 μg protein/well) containing microsomal suspension in a buffer containing GSH, (2.5 mmol/L L-Glutathione reduced, dissolved in 0.1 mol/L Phosphat Buffer pH 7.4) is dispensed in a 384-well plate and thereafter 1 μl of the test compound(s) is/are added and incubated for 25 minutes at room temperature. The enzyme reaction is started by the addition of 2 μl PGH2 (final conc. 2 μM) dissolved in water-free Diglyme. After 60 seconds the reaction is terminated by addition of a stop solution containing FeCl2 (10 μL 0.074 mol/l FeCl2). The samples are diluted between 1:25 in PBS (Phosphate Buffered Saline). 10 μl of the diluted samples are transferred to 384-well low volume plate. In order to quantify the amount of PGE2 that has been formed, a homogenous time resolved fluorescent (HTRF) detecting of PGE2 has been performed using a commercially available kit from Cisbio according to the manufactures recommendation. This HTRF-based assay has been described in detail (see: Goedken et al., J Biomol Screen, 2008, 13(7), 619-625). Briefly, the diluted samples are mixed with 5 μl PGE2-d2 conjungate and 5 μl anti-PGE2 cryptate conjungate. After an incubation period of the plates over night, the fluorescence is measured by the use of an appropriate microplate reader.
The fluorescence of Europium cryptate (maxex=307 nm, maxem=620 nm) and d2-PGE2 (maxex=620 nm, maxem=665 nm) are measured.
The extent of the specific HTRF is measured as a ratio of the emission intensity at 665 nm vs. that at 620 nm at an excitation puls of 320 nm. The quantification plate contains also wells with different concentrations of PGE2 as calibration curve for the calculation of the PGE2 concentrations from the HTRF ratio values.
From all mPGES enzyme assay the background is subtracted and the IC50 is calculated over a nonlinear regression with conventional software.
For orientation: Time-resolved FRET reads energy transfer from a long-lived donor to a nearby acceptor.

In the case of `Cn1c(Nc2cc(CNC(=O)C3(C(F)(F)F)CC3)ccc2Cl)nc2cc(C(=O)N[C@H]3CC[C@H](C(F)(F)F)CC3)c(N3CCC(C(F)(F)F)CC3)nc21` [Example 1, N-(trans-4-Trifluoromethyl-cyclohexyl)-2-{2-chloro-5-[(1-trifluoromethyl-cyclopropyl-carbonylamino)methyl]-phenylamino}-5-[4-trifluoromethyl-piperidinyl]-3-methyl-3H-imidazo[4,5-b]pyridine-6-carboxamide], the values for the IC50 on mPGES-1 [1] and at mPGES-1 [2] were 7 nM and 5 nM, respectively. Turning to `Cn1c(Nc2c(Cl)ccc(CNC(=O)C(C)(C)C)c2Cl)nc2cc(C(=O)N[C@H]3CC[C@H](C(F)(F)F)CC3)c(N3CCC(F)CC3)nc21` [Example 2, N-(trans-4-Trifluoromethyl-cyclohexyl)-2-{2,6-dichloro-3-[(2,2-dimethyl-propionylamino)-methyl]-phenylamino}-5-[-fluoro-piperidinyl]-3-methyl-3H-imidazo[4,5-b]pyridine-6-carboxamide], the results for the IC50 at mPGES-1 [1] and on mPGES-1 [2] were 2 nM and 8 nM, respectively. In the same order, the values of `CC(C)(C)C(=O)NCc1ccc(Cl)c(Nc2nc3cc(C(=O)N[C@H]4CC[C@H](C(F)(F)F)CC4)c(N4CCC(F)CC4)nc3[nH]2)c1Cl` [Example 3, N-(trans-4-Trifluoromethyl-cyclohexyl)-2-{2,6-dichloro-3-[(2,2-dimethyl-propionylamino)-methyl]-phenylamino}-5-[4-fluoro-piperidinyl]-3H-imidazo[4,5-b]pyridine-6-carboxamide] are 2 nM and 3 nM. The corresponding values for `CN(CC(F)F)c1nc2[nH]c(Nc3c(Cl)ccc(CNC(=O)C(C)(C)C)c3Cl)nc2cc1C(=O)N[C@H]1CC[C@H](C(F)(F)F)CC1` [Example 4] are 3 nM and 1 nM.

On to `CN(CC(F)F)c1nc2c(cc1C(=O)N[C@H]1CC[C@H](C(F)(F)F)CC1)nc(Nc1cc(CNC(=O)C3(C(F)(F)F)CC3)ccc1Cl)n2C` [Example 5], for which the IC50 at mPGES-1 [1] is 58 nM; on mPGES-1 [2], 9 nM.

In the case of `COCCN(C)c1nc2c(cc1C(=O)N[C@H]1CC[C@H](C(F)(F)F)CC1)nc(Nc1cc(CNC(=O)C3(C(F)(F)F)CC3)ccc1Cl)n2C` [Example 6], on mPGES-1 [2], the IC50 was determined as 9 nM.

In the case of `CC(C)(C)C(=O)NCc1ccc(Cl)c(Nc2nc3cc(C(=O)N[C@H]4CC[C@H](C(F)(F)F)CC4)c(N4CC[C@@H](F)C4)nc3[nH]2)c1Cl` [Example 7], the IC50 turned out to be 11 nM on mPGES-1 [1] and 4 nM on mPGES-1 [2]. In the case of `CC(C)(C)C(=O)NCc1ccc(Cl)c(Nc2nc3cc(C(=O)N[C@H]4CC[C@H](C(F)(F)F)CC4)c(N4CC[C@H](F)C4)nc3[nH]2)c1Cl` [Example 8], the results for the IC50 at mPGES-1 [1] and at mPGES-1 [2] were 11 nM and 2 nM, respectively. As for `CC(C)(C)C(=O)NCc1ccc(Cl)c(Nc2nc3cc(C(=O)N[C@H]4CC[C@H](C(F)(F)F)CC4)c(N4CCC(F)(F)C4)nc3[nH]2)c1Cl` [Example 9], the IC50 at mPGES-1 [1] was found to be 6 nM; at mPGES-1 [2], 2 nM. For the compound `CN(CC(F)F)c1nc2[nH]c(Nc3c(Cl)ccc(CNC(=O)C(C)(C)C)c3Cl)nc2cc1C(=O)NC1CCC(F)(F)CC1` [Example 10], the IC50 is 8 nM at mPGES-1 [1] and 1 nM on mPGES-1 [2].

Take `CN(CC(F)F)c1nc2[nH]c(Nc3c(Cl)ccc(CNC(=O)C(C)(C)C)c3Cl)nc2cc1C(=O)NCC(F)F` [Example 11]: the IC50 came to 47 nM at mPGES-1 [1] and 10 nM at mPGES-1 [2]. In the same order, the values of `CC(C)(C)C(=O)NCc1ccc(Cl)c(Nc2nc3cc(C(=O)N[C@H]4CC[C@H](C(F)(F)F)CC4)c(N4CC5CC5C4)nc3[nH]2)c1Cl` (stereo partly drawn) [Example 12] are 2 nM and 2 nM. In the same order, the values of `CC(C)(C)OC(=O)NCc1cc(F)c(Cl)c(Nc2nc3cc(C(=O)N[C@H]4CC[C@H](C(F)(F)F)CC4)c(N4CCC(F)CC4)nc3[nH]2)c1Cl` [Example 14, N-(trans-4-Trifluoromethyl-cyclohexyl)-2-{2,6-dichloro-5-fluoro-3-[(tert.butoxycarbonylamino)-methyl]-phenylamino}-5-[4-fluoro-piperidinyl]-3H-imidazo[4,5-b]pyridine-6-carboxamide] are 86 nM and 35 nM. Turning to `CC(C)(C)C(=O)NCc1cc(F)c(Cl)c(Nc2nc3cc(C(=O)N[C@H]4CC[C@H](C(F)(F)F)CC4)c(N4CCC(F)CC4)nc3[nH]2)c1Cl` [Example 15, N-(trans-4-Trifluoromethyl-cyclohexyl)-2-{2,6-dichloro-5-fluoro-3-[(2,2-dimethyl-propionylamino)-methyl]-phenylamino}-5-[4-fluoro-piperidinyl]-3H-imidazo[4,5-b]pyridine-6-carboxamide], the IC50 was determined as 10 nM on mPGES-1 [1] and 2 nM at mPGES-1 [2]. Consider `CN(Cc1nccn1C)c1nc2c(cc1C(=O)N[C@H]1CC[C@H](C(F)(F)F)CC1)nc(Nc1c(Cl)ccc(CNC(=O)C(C)(C)C)c1Cl)n2C` [Example 16], for which the 50% inhibitory concentration (IC50) on mPGES-1 [1] and on mPGES-1 [2] was 3 nM throughout. For the compound `Cn1c(Nc2c(Cl)ccc(CNC(=O)C(C)(C)C)c2Cl)nc2cc(C(=O)N[C@H]3CC[C@H](C(F)(F)F)CC3)c(N3CC[C@@H](F)C3)nc21` [Example 18], the IC50 on mPGES-1 [1] and on mPGES-1 [2] was 2 nM each time.

As for `Cn1c(Nc2c(Cl)ccc(CNC(=O)C(C)(C)C(F)(F)F)c2Cl)nc2cc(C(=O)N[C@H]3CC[C@H](C(F)(F)F)CC3)c(N3CC[C@@H](F)C3)nc21` [Example 19], the IC50 came out at 6 nM at mPGES-1 [1] and 4 nM on mPGES-1 [2]. `CN(c1nc2c(cc1C(=O)N[C@H]1CC[C@H](C(F)(F)F)CC1)nc(Nc1c(Cl)ccc(CNC(=O)C(C)(C)C)c1Cl)n2C)C1COC1` [Example 20]: the IC50 came out at 3 nM at mPGES-1 [1] and 2 nM at mPGES-1 [2]. Take `Cn1c(Nc2c(Cl)ccc(CNC(=O)C(C)(C)C)c2Cl)nc2cc(C(=O)NC(Cc3ccccc3)C(F)(F)F)c(N3CCC(C(F)(F)F)CC3)nc21` (stereo not drawn) [Example 39]: the IC50 on mPGES-1 [1] was determined as 25 nM.
